From patent US9884043B2, “RORgammaT inhibitors” (Merck Sharp & Dohme Corp., priority 2011, dated 2018)

What follows are compounds tested against T1, HIS-tagged RORγ-LBD (Homo sapiens, UniProt P51449) (assay: TR-FRET assay (Protocol B), RORγ-LBD lysate / biotinylated SRC1-2 LXXLL peptide). Details: unpurified RORγ-LBD lysate ~10 nM, SRC1-2 peptide 450 nM.
T1 construct: HIS-tagged RORγ-LBD was recombinantly expressed in SF9 cells using a baculovirus expression system; made in house; host or cells: SF9 cells, baculovirus; crude lysate used
T1 sequence (P51449 269-508 limits assumed): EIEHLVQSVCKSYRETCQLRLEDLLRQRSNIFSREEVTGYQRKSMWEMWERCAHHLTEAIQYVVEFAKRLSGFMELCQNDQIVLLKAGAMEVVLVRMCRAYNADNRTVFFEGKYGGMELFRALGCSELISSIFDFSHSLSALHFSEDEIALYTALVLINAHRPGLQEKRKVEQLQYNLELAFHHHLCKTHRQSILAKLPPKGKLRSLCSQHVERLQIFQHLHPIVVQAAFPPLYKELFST
Format: biochemical
Description: (§1) Activation of RORgammaT activity can be measured using e.g. biochemical TR-FRET assay. In such an assay, interaction of cofactor-derived peptides with human RORgammaT-Ligand Binding Domain (LBD) can be measured.
(§2) To identify novel antagonists of RORgammaT, an assay was developed which employs the interaction of RORgammaT with its co-activator peptide SRC1_2. […] The assay was run following three slightly different protocols, i.e. Protocol A, Protocol B, and Protocol C, which are described below.
TR-Fret Assay (Protocol B)
HIS-tagged RORγ-LBD was recombinantly expressed in SF9 cells using a baculovirus expression system. The protein was not purified. Cells were lysed and the lysate was used as a source for RORγ-LBD for the assay. A 1:80 dilution of RORγ-LBD lysate in assay buffer (25 mM HEPES pH 7.0, 100 mM NaCl, 0.01% Tween, 0.1% BSA) was prepared and 5 μL was added to each well (RORγ-LBD final concentration ˜10 nM). Control wells received lysate from SF9 cells not expressing RORγ-LBD.
Compounds to be tested were diluted to 100× final test concentration in DMSO and further diluted to 4× final test concentration using assay buffer to provide the test compound mixture. An aliquot (5 μL) of the test compound mixture was added to each well.

Row | IC50 | Compound
1 | < 50 nM | Cc1cc(C(=O)O)ccc1-c1nn(C(=O)c2c(Cl)cccc2C(F)(F)F)c2cccnc12 [Example 24AF, 4-(1-(2-chloro-6-(trifluoromethyl)-benzoyl)-1H-pyrazolo[4,3-b]pyridin-3-yl)-3-methylbenzoic acid]
2 | 50 to 500 nM | COc1cc(-c2nn(C(=O)c3c(Cl)cccc3C(F)(F)F)c3cccnc23)ccc1C(=O)O [Example 24AI, 4-(1-(2-chloro-6-(trifluoromethyl)-benzoyl)-1H-pyrazolo[4,3-b]pyridin-3-yl)-2-methoxybenzoic acid]
3 | 50 to 500 nM | COc1cc(F)c2c(-c3ccc(C(=O)O)cc3)nn(C(=O)c3c(Cl)cccc3C(F)(F)F)c2c1 [Example 24AZ, 4-(1-(2-chloro-6-(trifluoromethyl)-benzoyl)-4-fluoro-6-methoxy-1H-indazol-3-yl) benzoic acid]
4 | < 50 nM | COc1cccc(F)c1C(=O)n1nc(-c2ccc(C(=O)O)cc2)c2ncccc21 [Example 24AM, 4-(1-(2-fluoro-6-methoxybenzoyl)-1H-pyrazolo[4,3-b]pyridin-3-yl)benzoic acid]
5 | < 50 nM | CN(C)C(=O)c1ccc2c(-c3ccc(C(=O)O)cc3Cl)nn(C(=O)c3c(Cl)cccc3C(F)(F)F)c2c1 [Example 25J, 3-chloro-4-(1-(2-chloro-6-(trifluoromethyl)benzoyl)-6-(dimethyl-carbamoyl)-1H-indazol-3-yl)benzoic acid]
6 | < 50 nM | O=C(O)c1ccc(-c2nn(C(=O)c3c(Cl)cccc3C(F)(F)F)c3cccc(F)c23)c(O)c1 [Example 26E, 4-(1-(2-chloro-6-(trifluoromethyl)benzoyl)-4-fluoro-1H-indazol-3-yl)-3-hydroxybenzoic acid]
7 | 50 to 500 nM | CN(C)C(=O)c1ccc2c(-c3ccc(C(=O)O)c(F)c3)nn(C(=O)c3c(Cl)cccc3C(F)(F)F)c2c1 [Example 25I, 4-(1-(2-chloro-6-(trifluoromethyl)benzoyl)-6-(dimethyl-carbamoyl)-1H-indazol-3-yl)-2-fluorobenzoic acid]
8 | 50 to 500 nM | NC(=O)c1ccc(-c2nn(C(=O)c3c(Cl)cccc3C(F)(F)F)c3cccc(F)c23)cc1 [Example 24J, 4-(1-(2-chloro-6-(trifluoromethyl)-benzoyl)-4-fluoro-1H-indazol-3-yl)benzamide]
9 | < 50 nM | COc1cccc(F)c1C(=O)n1nc(-c2ccc(C(=O)O)cc2)c2c(F)cccc21 [Example 24AB, 4-(4-fluoro-1-(2-fluoro-6-methoxybenzoyl)-1H-indazol-3-yl)benzoic acid]

The compounds below were run against T2, 6His(GST)RORgamma-LBD (Homo sapiens, UniProt P51449) (assay: TR-FRET assay (Protocol A), RORgamma-LBD / SRC1_2 co-activator peptide interaction). Details: SRC1_2 peptide 0.1 μM, RORgamma-LBD 10 nM, overnight incubation at 4° C.
T2 construct: the applied RORgamma-LBD contains a 6-His and GST tag; GST (N); made in house; host or cells: baculovirus-infected Sf-21 insect cells
T2 sequence (P51449 269-508 limits assumed): T1 sequence (P51449 269-508 limits assumed)
Format: biochemical
Description: as §1, §2
TR-FRET Assay (Protocol A)
The 6His(GST)RORgamma-LBD was expressed and purified from baculovirus infected Sf-21 insect cells (Bac-to-BAC, Invitrogen) and purified using glutathione sepharose chromatography (GE healthcare). Biotin and His function as anchoring points for streptavidin-allophycocyanin (Strep-APC, Perkin Elmer, C130-100) and anti-His-Europium Cryptate (Perkin Elmer, AD0111), respectively. Since energy transfer between the streptavidin and His-coupled labels APC and europium cryptate can only take place when these labels are in close proximity, measurement of energy transfer in a mixture of biotinylated peptide, His-GR-LBD, streptavidin-APC and anti-His-Europium Cryptate will be indicative for RORy-LBD/peptide binding. […] Changes in peptide binding caused by dose-curves of compounds added to the reaction mixture (DMSO concentration 0.1%), can likewise be monitored.

Row | EC50 | pEC50 | Compound
10 | 52.5 nM |  | Cc1c(Cl)cccc1S(=O)(=O)n1nc(-c2ccc(C(=O)O)cc2)c2ccccc21 [Example 13D, 4-(1-(3-chloro-2-methylphenylsulfonyl)-1H-indazol-3-yl)benzoic acid]
11 |  | 7.17 | O=C(O)c1ccc(-c2nn(S(=O)(=O)c3ccccc3C(F)(F)F)c3ccccc23)cc1 [Example 12, 4-(1-(2-(trifluoromethyl)phenylsulfonyl)-1H-indazol-3-yl)benzoic acid]
12 | 245 nM |  | O=C(O)c1ccc(-c2nn(C(=O)c3c(Cl)cccc3Cl)c3ccc(F)cc23)cc1 [Example 2, 4-(1-(2,6-dichlorobenzoyl)-5-fluoro-1H-indazol-3-yl)benzoic acid]
13 | 174 nM |  | O=C(O)c1ccc(-c2nn(C(=O)c3c(Cl)cccc3Cl)c3cc(F)ccc23)cc1 [Example 5, 4-(1-(2,6-dichlorobenzoyl)-6-fluoro-1H-indazol-3-yl)benzoic acid]
14 | 39.8 nM |  | O=C(O)c1ccc(-c2nn(C(=O)c3c(F)cccc3C(F)(F)F)c3ccccc23)cc1 [Example 11F, 4-(1-(2-fluoro-6-(trifluoromethyl)benzoyl)-1H-indazol-3-yl)benzoic acid]
15 | 1950 nM |  | N#Cc1ccccc1S(=O)(=O)n1nc(-c2ccc(C(=O)O)cc2)c2ccccc21 [Example 14, 4-(1-(2-cyanophenylsulfonyl)-1H-indazol-3-yl)benzoic acid]
16 | 1910 nM |  | CCOc1ccccc1C(=O)n1nc(-c2ccc(C(=O)O)cc2)c2ccccc21 [Example 11J, 4-(1-(2-ethoxybenzoyl)-1H-indazol-3-yl)benzoic acid]
17 | 26.9 nM |  | O=C(O)c1ccc(-c2nn(C(=O)c3c(Cl)cccc3Br)c3ccccc23)cc1 [Example 11E, 4-(1-(2-bromo-6-chlorobenzoyl)-1H-indazol-3-yl)benzoic acid]
18 | 75.9 nM |  | O=C(O)c1ccc(-c2nn(S(=O)(=O)c3cc(Cl)ccc3Cl)c3ccccc23)cc1 [Example 13C, 4-(1-(2,5-dichlorophenylsulfonyl)-1H-indazol-3-yl)benzoic acid]
19 | 513 nM |  | COC(=O)c1ccccc1C(=O)n1nc(-c2ccc(C(=O)O)cc2)c2ccccc21 [Example 11C, 4-(1-(2-(methoxycarbonyl)benzoyl)-1H-indazol-3-yl)benzoic acid]
20 | 617 nM |  | O=S(=O)(c1sc(Cl)cc1Br)n1nc(-c2ccc(-c3nnn[nH]3)cc2)c2ccccc21 [Example 21C, 3-(4-(1H-tetrazol-5-yl)phenyl)-1-(3-bromo-5-chlorothiophen-2-ylsulfonyl)-1H-indazole]
21 | 14.1 nM |  | O=C(O)c1ccc(-c2cn(C(=O)c3c(Cl)cccc3Cl)c3cccnc23)cc1 [Example 7, 4-(1-(2,6-dichlorobenzoyl)-1H-pyrrolo[3,2-b]pyridin-3-yl)benzoic acid]
22 | 26.3 nM |  | O=C(O)c1ccc(-c2nn(S(=O)(=O)c3cccc(Cl)c3Cl)c3ccccc23)cc1 [Example 13E, 4-(1-(2,3-dichlorophenylsulfonyl)-1H-indazol-3-yl)benzoic acid]
23 | 9330 nM |  | O=S(=O)(c1ccccc1C(F)(F)F)n1nc(-c2ccc(C(O)(C(F)(F)F)C(F)(F)F)cc2)c2ccccc21 [Example 9, 1,1,1,3,3,3-hexafluoro-2-(4-(1-(2-(trifluoromethyl)phenylsulfonyl)-1H-indazol-3-yl)phenyl)propan-2-ol]
24 | 8.32 nM |  | O=C(O)c1ccc(-c2nn(C(=O)c3c(Cl)cccc3Cl)c3cccc(F)c23)cc1 [Example 4, 4-(1-(2,6-dichlorobenzoyl)-4-fluoro-1H-indazol-3-yl)benzoic acid]
25 | 21.4 nM |  | O=C(O)c1ccc(-c2nn(C(=O)c3cccc(Cl)c3Cl)c3ccccc23)cc1 [Example 11K, 4-(1-(2,3-dichlorobenzoyl)-1H-indazol-3-yl)benzoic acid]
26 | 72.4 nM |  | Cc1cccc(C)c1C(=O)n1nc(-c2ccc(C(=O)O)cc2)c2ccccc21 [Example 11I, 4-(1-(2,6-dimethylbenzoyl)-1H-indazol-3-yl)benzoic acid]
27 | 741 nM |  | Cc1noc(C)c1S(=O)(=O)n1nc(-c2ccc(-c3nnn[nH]3)cc2)c2ccccc21 [Example 21D, 4-(3-(4-(1H-tetrazol-5-yl)phenyl)-1H-indazol-1-ylsulfonyl)-3,5-dimethylisoxazole]
28 | 13.5 nM |  | O=C(O)c1ccc(-c2nn(C(=O)c3c(Cl)cccc3Cl)c3cccnc23)cc1 [Example 6A, 4-(1-(2,6-dichlorobenzoyl)-1H-pyrazolo[4,3-b]pyridin-3-yl)benzoic acid]
29 | 525 nM |  | O=C(O)c1ccc(-c2nn(C(=O)C3CCCCC3)c3ccccc23)cc1 [Example 11D, 4-(1-(cyclohexanecarbonyl)-1H-indazol-3-yl)benzoic acid]
30 | 25.7 nM |  | Cc1cccc([N+](=O)[O-])c1C(=O)n1nc(-c2ccc(C(=O)O)cc2)c2ccccc21 [Example 11N, 4-(1-(2-methyl-6-nitrobenzoyl)-1H-indazol-3-yl)benzoic acid]
31 | 4470 nM |  | O=C(O)c1ccc(-c2nn(S(=O)(=O)c3cccc4nonc34)c3ccccc23)cc1 [Example 15D, 4-(1-(benzo[c][1,2,5]oxadiazol-4-ylsulfonyl)-1H-indazol-3-yl)benzoic acid]
32 | 26.3 nM |  | O=C(O)c1ccc(-c2nn(C(=O)c3ccccc3Cl)c3ccccc23)cc1 [Example 11L, 4-(1-(2-chlorobenzoyl)-1H-indazol-3-yl)benzoic acid]
33 | 79.4 nM |  | O=C(O)c1ccc(-c2nn(S(=O)(=O)c3ccccc3Br)c3ccccc23)cc1 [Example 13B, 4-(1-(2-bromophenylsulfonyl)-1H-indazol-3-yl)benzoic acid]
